We go through one compound from ChEMBL document CHEMBL1130372, “Synthesis and evaluation of putative oxocarbenium intermediate mimic in the KDO8P synthase-catalyzed reaction as a tool for the design of potent inhibitors for lipopolysaccharide biosynthesis” (Bioorg Med Chem Lett, 1997).

A short description of this experiment: The inhibitory activity was evaluated against homogeneous KDO 8-P synthase from Escherichia coli by varying PEP at saturating concentrations of A5P (0.5 mM).

By Ki is commonly meant a dissociation constant, usually derived from enzyme kinetics or from competition with a known ligand. A low value points to tighter binding. `O=C(O)CN(CC(O)C(O)C(O)[C@H](O)COP(=O)(O)O)CP(=O)(O)O` (stereo partly specified) returned a Ki of 3.3 µM.
